Laboratory results taken from patent publication US8834921B2, “Sustained-release liposomal anesthetic compositions” (Pacira Pharmaceuticals, Inc., priority 1997, dated 2014).
Where a name gives a salt, the structure may show the parent alone.

Columns and labels:
mice = assay: Determination of maximum tolerated dose (MTD), subcutaneous test; format: in vivo; conditions: highest dose at which none of the animals experienced systemic toxicity
From the text: (§1) Male guinea pigs weighing 800-1000 grams (Harlan-Sprague-Dawley, San Diego, Calif.) were used for efficacy studies. Male guinea pigs (Harlan-Sprague-Dawley) weighing 400-600 grams were used for pharmacokinetic studies. The animals were housed, 1 per cage, in a temperature-controlled environment with alternating 12-hour periods of light and darkness and given unrestricted access to food and water. Prior to each study, animals were habituated to the environment for at least 7 days. Female CDI mice (Sprague-Dawley) weighing 22-28 grams were used for determination of maximum tolerated dose (MTD). All animals were maintained in accordance with guidelines of the Committee on Care and Use of Laboratory Animals of the Institute of Laboratory Animal Resources, National Research Council.
Determination of maximum tolerated dose (MTD) was done in mice using a subcutaneous test known in the art (R. H. de long et al., Anesthesiology 54:177-81, 1981). Groups of three mice each were given injections of either 780 or 980 mg per kg body weight of the above-described MVL formulation containing bupivacaine sulfate as two divided doses of 500 μl each (total 1.0 mL volume). The doses were administered in rapid sequence into each flank. Control groups of 3 mice each received one of the test doses as a single dose of 10, 20, 30 or 50 mg/kg body weight of unencapsulated bupivacaine hydrochloride. […]

in vivo = assay: in vivo; design: species or system guinea pigs; conditions: guinea pig; for half-life: t1/2 (hr)
From the text: as §1
The in vivo pharmacokinetics of the MVL formulations of bupivacaine and free bupivacaine hydrochloride were compared following a single 1 mL intracutaneous dose of the MVL formulation containing 1.0 percent (w/v) of bupivacaine, or a dose of 0.5 percent (w/v) of unencapsulated bupivacaine hydrochloride to a group of guinea pigs. […] For the animals that received free bupivacaine hydrochloride, samples were collected at 0 and 30 minutes, and 1, 3, 6 and 9 hours following injection, while the animals that received the MVL formulations of bupivacaine were sampled 0, 6, 12, 18, 24, 48, and 72 hours following injection. At each time point, 3 or more animals were first anesthetized with halothane and then exanguinated by cardiac puncture. Serum samples were obtained by centrifugation of clotted whole blood. Skin was collected around the injection site with 3 cm margins, together with a 2-3 mm layer of underlying subcutaneous tissue. The skin and serum samples were kept frozen at −20° C. until analysis.
The amount of total bupivacaine remaining in the injection site was obtained by mincing the tissue followed by in toto homogenization in water using a Polytron homogenizer (Brinkman, Littau, Switzerland). Bupivacaine was extracted from the homogenate and analyzed by HPLC using a previously published method (Le Guevello et al., J. Chromatography 622:284-290, 1993). Bupivacaine concentration in serum was determined by extraction followed by HPLC (Le Guevello et al., supra). Tetracaine spiked into each sample before extraction was used as an internal standard. The limit of detection of the assay was 20 ng/mL.
Pharmacokinetic data obtained from the samples were analyzed using a noncompartmental model (WinNonlin software, Scientific Consulting, Inc., Apex, N.C.). Parameters calculated were the drug amount remaining at the injection site, the area under the “amount vs. time” curve (AUC), and drug half-life (t1/2,). In addition to the AUC and half-life, peak concentration (Cmax) was also reported for serum bupivacaine pharmacokinetics.
One way analysis of variance (ANOVA) was used to separately determine dose dependency for the different drug formulations and route of administration (via MVL or free drug) as well as for comparison between formulations. Student-Newman-Keuls tests were used on all ANOVA analyses.

For CCCCN1CCCCC1C(=O)Nc1c(C)cccc1C (centres unmarked) [Bupivacaine hydrochloride], the “maximum tolerated dose (MTD)” value (mice) was “about 20 mg/kg of body weight”, the “AUC (mg * hr), Skin” value (in vivo) was 2.9 mg·h and the “tolerability of the intracutaneous dose” value (in vivo) was “unable to tolerate”. The AUC (in vivo; male) was 21200 ng·h/mL, the Cmax (in vivo; male) was 6500 ng/mL and the “Peak Amount (mg), Skin” value (in vivo; male) was 3.8 mg. The half-life (in vivo; male, Serum) was 2.1 h and the half-life (in vivo; male, Skin) was 1.3 h.
